Experimental findings from ChEMBL document CHEMBL5316350, “Novel Pyrido[2',1':2,3]imidazo[4,5-c]quinoline Derivative Selectively Poisons Leishmania donovani Bisubunit Topoisomerase 1 to Inhibit the Antimony-Resistant Leishmania Infection in Vivo” (J Med Chem, 2023) are described below.

Each structure is given as a SMILES string. Active and inactive are the calls of the source. The calls are words filed in the database; no cut-off is given here.

Data set [1] concerns Leishmania donovani. The experiment in a line: Antileishmanial activity against Leishmania donovani Ag83 promastigotes infected in BALB/c mouse assessed as reduction of amastigote burden by measuring parasite count in spleen treated after 3 weeks of infection at 5 to 10 mg/kg, ip twice a week for 3 weeks by qPCR based kineto-plastid DNA. Particulars: dose 5-10 mg/kg. Format: functional, organism-based. On the technique in general: In qPCR the cycle at which signal appears reflects the starting amount.

Data set [2] in a line: Toxicity in BALB/c mouse infected with Antimony resistant Leishmania donovani BHU575 promastigotes assessed as change in body weight treated after 3 weeks of infection at 5 to 10 mg/kg, ip twice a week for 3 weeks. The class given is organism-based. Particulars: in vivo, dose 5-10 mg/kg.
Data set [3] deals with Leishmania donovani. As to the kind of experiment: Induction of cell cycle arrest in antimony resistant Leishmania donovani BHU575 promastigotes assessed as decrease in accumulation of cells in G2/M phase at 5 uM measured after 24 hrs by PI staining based flow cytometry (reference value: 8.8%). The class given is functional. Further details: scale not given: the % may be the effect or the level left. A general note: Flow cytometry measures light scatter and fluorescence of single cells or particles in a stream.

Data set [4] concerns Leishmania donovani. As to the kind of experiment: Induction of apoptosis in Leishmania donovani Ag83 promastigotes assessed as viable cells measured at 5 uM after 6 hrs by Annexin V-FITC/PI staining based flow cytometric analysis (reference value: 99.4%). The class given is functional.
In data set [5] the test system is Leishmania donovani. As to the kind of experiment: Antileishmanial activity against Leishmania donovani Ag83 promastigotes infected in BALB/c mouse model of visceral leishmaniasis assessed as fold change in T-helper type 1 immunological evoke response in splenocytes by measuring increase in TNF alpha cytokine level treated after 3 weeks of infection at 5 to 10 mg/kg, ip twice a week for 3 weeks by RT-PCR analysis. Format: functional. Particulars: dose 5-10 mg/kg.

Data set [6] has as its system Leishmania donovani. The experiment in a line: Antileishmanial activity against Leishmania donovani Ag83 promastigotes infected in BALB/c mouse model of visceral leishmaniasis assessed as fold change in T-helper type 1 immunological evoke response in splenocytes by measuring increased IFN-gamma cytokine level treated after 3 weeks of infection at 5 mg/kg, ip twice a week for 3 weeks by RT-PCR analysis. Format: functional.

Data set [7] deals with T1, DNA topoisomerase I (Leishmania donovani (strain BPK282A1)) (UniProt E9BRC0).
T1 sequence (whole entry): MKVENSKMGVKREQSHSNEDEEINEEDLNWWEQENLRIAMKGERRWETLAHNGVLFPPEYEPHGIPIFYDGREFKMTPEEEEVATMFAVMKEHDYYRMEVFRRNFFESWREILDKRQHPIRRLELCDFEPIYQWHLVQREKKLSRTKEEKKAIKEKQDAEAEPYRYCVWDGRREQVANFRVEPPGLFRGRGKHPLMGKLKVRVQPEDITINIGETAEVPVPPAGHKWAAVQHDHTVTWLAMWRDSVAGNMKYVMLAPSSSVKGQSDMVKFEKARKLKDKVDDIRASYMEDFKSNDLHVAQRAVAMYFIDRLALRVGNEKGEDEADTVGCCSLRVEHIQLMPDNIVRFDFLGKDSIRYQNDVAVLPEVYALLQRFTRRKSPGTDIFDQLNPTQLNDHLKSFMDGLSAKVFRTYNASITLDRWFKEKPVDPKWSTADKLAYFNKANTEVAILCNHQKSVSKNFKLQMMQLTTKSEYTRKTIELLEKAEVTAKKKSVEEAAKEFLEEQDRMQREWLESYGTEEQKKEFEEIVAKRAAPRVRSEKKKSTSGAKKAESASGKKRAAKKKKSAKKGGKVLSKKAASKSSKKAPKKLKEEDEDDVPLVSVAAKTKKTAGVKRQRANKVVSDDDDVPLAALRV
The experiment in a line: Potency index, ratio of Camptothecin IC50 to compound IC50 for inhibition of Leishmania donovani Top1 assessed as relaxation of supercoiled pBluescript SK(+) DNA measured by agarose gel electrophoresis analysis.

The target of data set [8] is T1, DNA topoisomerase I (Leishmania donovani (strain BPK282A1)). The experiment in a line: Inhibition of Leishmania donovani recombinant Top1 assessed as relaxation of supercoiled pBluescript SK(+) DNA incubated for 30 mins by agarose gel electrophoresis analysis. Particulars: dose 0.5-10 µM.
In data set [9] the target is T2, DNA topoisomerase 1 (Homo sapiens) (UniProt P11387).
T2 sequence (whole entry): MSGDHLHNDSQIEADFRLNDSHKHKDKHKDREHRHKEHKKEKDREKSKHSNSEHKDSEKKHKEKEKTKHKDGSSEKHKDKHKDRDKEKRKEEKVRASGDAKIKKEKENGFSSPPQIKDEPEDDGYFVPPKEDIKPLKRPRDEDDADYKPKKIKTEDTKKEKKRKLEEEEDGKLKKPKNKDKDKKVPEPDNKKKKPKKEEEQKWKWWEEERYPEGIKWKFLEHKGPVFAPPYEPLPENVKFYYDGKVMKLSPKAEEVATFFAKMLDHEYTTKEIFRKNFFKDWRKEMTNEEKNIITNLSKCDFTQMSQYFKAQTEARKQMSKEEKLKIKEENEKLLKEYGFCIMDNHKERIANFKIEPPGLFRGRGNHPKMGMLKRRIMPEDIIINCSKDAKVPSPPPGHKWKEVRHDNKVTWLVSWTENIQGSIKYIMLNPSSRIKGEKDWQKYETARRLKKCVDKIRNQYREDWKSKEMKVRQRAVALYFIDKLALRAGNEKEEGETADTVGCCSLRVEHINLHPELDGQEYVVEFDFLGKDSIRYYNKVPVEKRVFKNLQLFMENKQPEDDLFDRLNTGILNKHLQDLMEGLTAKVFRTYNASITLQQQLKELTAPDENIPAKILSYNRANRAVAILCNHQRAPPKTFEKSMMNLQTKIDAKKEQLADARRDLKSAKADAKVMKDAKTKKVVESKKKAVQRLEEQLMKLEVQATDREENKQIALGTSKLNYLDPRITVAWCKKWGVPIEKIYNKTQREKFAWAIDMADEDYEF
The experiment in a line: Inhibition of human recombinant Top1 assessed as stabilization of clevage complex upto 100 uM measured after 30 mins.

Data set [10] has as its system HEK293. As to the kind of experiment: Potency index ratio of test compound IC50 to camptothecin IC50 for cytotoxicity against HEK293 cells. The class given is functional, Homo sapiens.
Data set [11] concerns Leishmania donovani. The experiment in a line: Induction of apoptosis in Leishmania donovani Ag83 promastigotes assessed as DNA break accumulation measured at 5 uM after 24 hrs by TUNEL staining based assay. The class given is functional, organism-based.
Data set [12] has as its system Leishmania donovani. As to the kind of experiment: Induction of apoptosis in Leishmania donovani Ag83 promastigotes assessed as viable cells measured at 5 uM after 12 hrs by Annexin V-FITC/PI staining based flow cytometric analysis (reference value: 99.4%). Format: functional.
The test system of data set [13] is Leishmania donovani. As to the kind of experiment: Induction of apoptosis in […] Leishmania donovani Ag83 promastigotes assessed as DNA break accumulation measured at 5 uM after 15 mins by TUNEL staining based assay. The class given is functional, organism-based.
Data set [14] deals with Leishmania donovani. As to the kind of experiment: Induction of apoptosis in Leishmania donovani Ag83 promastigotes assessed as viable cells measured at 5 uM after 24 hrs by Annexin V-FITC/PI staining based flow cytometric analysis (reference value: 99.4%). Format: functional.
Data set [15] can be described thus: Selectivity index ratio of EC50 for BALB/c mouse macrophage to ratio of EC50 for antileishmanial activity against Leishmania amastigotes. Particulars: mouse macrophages, read-out: Ratio EC50. Format: toxicity.
Data set [16] relates to Leishmania donovani. The experiment in a line: Antileishmanial activity in Leishmania donovani Ag83 promastigotes assessed as fold change in persistent Top1cc-induced DNA breakdown by measuring TUNEL positive cells treated for 6 to 12 hrs followed by compound removal measured after 6 to 12 hrs by confocal microscopic analysis relative to camptothecin. Format: functional. Particulars: time 6-12 hrs.

Data set [17] deals with T1, DNA topoisomerase I (Leishmania donovani (strain BPK282A1)). The experiment in a line: Inhibition of Leishmania donovani recombinant Top1 assessed as relaxation of supercoiled pBluescript SK(+) DNA at 5 uM incubated for 30 mins by agarose gel electrophoresis analysis relative to control.

As for `COc1cc(-c2nc3ccccc3c3nc4ccccn4c23)cc(OC)c1OC`, the outcome in data set [1] and in data set [11] was Active. Also, the Activity result in data set [2] is recorded as “Non-Toxic”; in data set [3], 33.6%; in [4], 5%; in data set [12], 2%; in [14] it was 1.4%. Moreover, the “fold change (FC)” value in [5] amounted to 5; in [6], 4; in data set [16], 3. Besides, the figures for the Ratio IC50 in data set [7] and in [10] were 2.5 and 90, respectively. Besides, the inhibition entry in [8] is “Dose-Dependent Effect”; in data set [17], 85%. In addition, the inhibition result in [9] is “inactive”. In data set [13], the outcome was inactive. In addition, the selectivity ratio in [15] stood at 9.25.

The term inhibition denotes how much of the control response was suppressed.
